These results are taken from patent publication US11254688B2 (Boehringer Ingelheim International GmbH, priority 2018, dated 2022).

The target of the assay is T1, hGOAT (Homo sapiens, UniProt Q96T53).
T1 construct: expressed in transfected cells; host or cells: HEK293 (Hek293 hGOAT/PPGhrl Clone #1B8)
T1 sequence (Q96T53 1-435): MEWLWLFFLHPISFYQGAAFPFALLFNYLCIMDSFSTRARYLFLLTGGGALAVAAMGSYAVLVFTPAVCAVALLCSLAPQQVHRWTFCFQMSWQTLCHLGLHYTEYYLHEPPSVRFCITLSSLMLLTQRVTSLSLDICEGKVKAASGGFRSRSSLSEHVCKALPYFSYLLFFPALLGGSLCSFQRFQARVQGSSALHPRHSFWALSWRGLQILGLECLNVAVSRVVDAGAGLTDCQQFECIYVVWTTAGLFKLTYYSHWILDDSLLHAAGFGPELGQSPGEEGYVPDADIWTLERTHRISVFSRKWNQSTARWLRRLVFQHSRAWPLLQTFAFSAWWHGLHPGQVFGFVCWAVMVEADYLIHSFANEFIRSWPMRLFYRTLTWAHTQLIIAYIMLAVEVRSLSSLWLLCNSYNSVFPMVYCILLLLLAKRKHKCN
Nature of the assay: Determination of hGOAT activity in HEK293 cells after incubation with test compound (acyl-ghrelin ELISA). Format: cell-based. As to conditions: HEK293 cells stably transfected with preproghrelin and human GOAT; octanoate-BSA 100 μM; 5 hours incubation; acyl-ghrelin in medium by ELISA; 8 compound concentrations. The protocol:
Determination of hGOAT Activity in HEK293 Cells after Incubation with Test Compound
HEK293 cells stably transfected with two expression vectors, one coding for preproghrelin cDNA and a second for the expression of human GOATcDNA are used as a cellular model. After feeding the cells with octanoic acid for 5 hours, acyl-ghrelin is measured in cell culture medium by an ELISA procedure.
Cellline: Hek293 hGOAT/PPGhrl Clone #1B8Sodium octanoate, Sigma, Cat.-No. C5038
BD Poly-D-Lysin 384-well Plates, black-clear polystyrene BD Bioscience Cat.-No. […] ELISA human acylated Ghrelin Kit purchased from Bertin Pharman (detailed composition of buffers e.g. wash-puffer, ELISA buffer not known)
Cells are plated with a density of 5000 cells/well in 384-well poly-D-lysin plates and incubated for 1 day at 37° C., 5% CO2 in DMEM medium, 10% FCS, 1×NEAA, Puromycin (0.5 μg/ml) and G418 (1 mg/ml). Then the medium is changed to a identical medium without FCS and containing Octanoate-BSA (final concentration 100 μM each) and compound in DMSO (final DMSO concentration 0,3%). After incubation for 5 hours acylghrelin in the medium is measured by ELISA.
The medium sample is diluted 1:25 in Elisa buffer, a 25 μl aliquot is transferred to a 384-well ELISA plate previously washed 4 times with 100 μL wash buffer, and 25 μl tracer-solution is added. After incubation overnight (˜20 h) at 4° C. temperature the plate is washed 4 times with 100 μl wash-buffer per well. Finally 50 μl Ellman's reagent is added to each well and the plate is incubated in the dark for 20 minutes. The absorbance is measured at 405 nm in an Envision multilabel reader and the amount of acylated ghrelin is calculated according to a acylated ghrelin standard curve provided in the same plate.
The analysis of the data is performed by calculation of the percentage of acyl-ghrelin produced in the presence of test compound compared to the amount of acyl-ghrelin produced in the vehicle control samples. An inhibitor of the GOAT enzyme will give values between 100% CTL (no inhibition) and 0% CTL (complete inhibition).
IC50 values are calculated with Assay Explorer or other suited software based on curve fitting of results of 8 different compound concentrations.
A general note: An ELISA detects its analyte on a solid surface through an enzyme-linked reagent.
Regarding `Cc1nc2nonc2c(N)c1Cc1cccc(C(F)(F)F)c1` [Compound 4.38, 5-Methyl-6-{[3-(trifluoromethyl)phenyl]methyl}-[1,2,5]oxadiazolo[3,4-b]pyridin-7-amine], half-maximal inhibition (IC50) required 0.268 nM. Compound `Cc1nc2nonc2c(N)c1Cc1ccnc(C#N)c1` [Compound 4.39, 4-({7-Amino-5-methyl-[1,2,5]oxadiazolo[3,4-b]pyridin-6-yl}methyl)pyridine-2-carbonitrile] returned an IC50 of 9.39 nM. In the case of `Cc1nc2nonc2c(N)c1Cc1ccnc(C(F)(F)F)c1` [Compound 4.40, 5-Methyl-6-{[2-(trifluoromethyl)pyridin-4-yl]methyl}-[1,2,5]oxadiazolo[3,4-b]pyridin-7-amine] it was 2.21 nM; in that of `Cc1nc2nonc2c(N)c1Cc1cccc(OC(F)(F)F)c1` [Compound 4.41, 5-Methyl-6-{[3-(trifluoromethoxy)phenyl]methyl}-[1,2,5]oxadiazolo[3,4-b]pyridin-7-amine], 0.428 nM. For `Cc1nc2nonc2c(N)c1Cc1cccc(S(=O)(=O)C(F)(F)F)c1` [Compound 4.42, 5-Methyl-6-[(3-trifluoromethanesulfonylphenyl)methyl]-[1,2,5]oxadiazolo[3,4-b]pyridin-7-amine], half-maximal inhibition (IC50) was put at 0.377 nM. In the case of `Cc1nc2nonc2c(N)c1Cc1ccc(C#N)c(OC(F)(F)F)c1` [Compound 4.43, 4-({7-Amino-5-methyl-[1,2,5]oxadiazolo[3,4-b]pyridin-6-yl}methyl)-2-(trifluoromethoxy)benzonitrile] it was 0.052 nM. The value for `Cc1nc2nonc2c(N)c1Cc1ccc(F)c(Br)c1` [Compound 4.44, 6-(3-Bromo-4-fluoro-benzyl)-5-methyl-[1,2,5]oxadiazolo[3,4-b]pyridin-7-ylamine] was 0.573 nM; that for `Cc1nc2nonc2c(N)c1Cc1ccc(C#N)c(Br)c1` [Compound 4.45, 4-(7-Amino-5-methyl-[1,2,5]oxadiazolo[3,4-b]pyridin-6-ylmethyl)-2-bromo-benzonitrile] was 0.233 nM. The value for `Cc1nc2nonc2c(N)c1Cc1ccc(OC(F)(F)F)cc1F` [Compound 4.46, 6-(2-Fluoro-4-trifluoromethoxy-benzyl)-5-methyl-[1,2,5]oxadiazolo[3,4-b]pyridin-7-ylamine] was 0.052 nM. Turning to `Cc1nc2nonc2c(N)c1Cc1cccnc1OC(F)F` [Compound 4.47, 6-{[2-(Difluoromethoxy)pyridin-3-yl]methyl}-5-methyl-[1,2,5]oxadiazolo[3,4-b]pyridin-7-amine], 1.8 nM corresponded to half-maximal inhibition (IC50). The compound `Cc1nc2nonc2c(N)c1Cc1ccnc(OC(F)F)c1` [Compound 4.48, 6-(2-Difluoromethoxy-pyridin-4-ylmethyl)-5-methyl-[1,2,5]oxadiazolo[3,4-b]pyridin-7-ylamine] registered an IC50 of 3 nM. Compared with the last compound, the IC50 is about 1.7-fold higher.

`Cc1nc2nonc2c(N)c1Cc1cnc(OC(F)F)c(C#N)c1` [Compound 4.49, 5-({7-Amino-5-methyl-[1,2,5]oxadiazolo[3,4-b]pyridin-6-yl}methyl)-2-(difluoromethoxy)pyridine-3-carbonitrile] returned an IC50 of 35.7 nM. In the case of `Cc1nc2nonc2c(N)c1Cc1ccc(F)cc1` [Compound 4.50, 6-[(4-Fluorophenyl)methyl]-5-methyl-[1,2,5]oxadiazolo[3,4-b]pyridin-7-amine] it was 0.751 nM. In the case of `COc1cccc(Cc2c(C)nc3nonc3c2N)c1` [Compound 4.51, 6-[(3-Methoxyphenyl)methyl]-5-methyl-[1,2,5]oxadiazolo[3,4-b]pyridin-7-amine] it was 0.673 nM; in that of `Cc1nc2nonc2c(N)c1Cc1cc(F)c(F)c(F)c1` [Compound 4.52, 5-Methyl-6-[(3,4,5-trifluorophenyl)methyl]-[1,2,5]oxadiazolo[3,4-b]pyridin-7-amine], 1.59 nM; in that of `COc1ccc(Cc2c(C)nc3nonc3c2N)cc1` [Compound 4.53, 6-[(4-Methoxyphenyl)methyl]-5-methyl-[1,2,5]oxadiazolo[3,4-b]pyridin-7-amine], 0.147 nM. In the case of `Cc1nc2nonc2c(N)c1Cc1cccc(OC(F)F)c1` [Compound 4.54, 6-{[3-(Difluoromethoxy)phenyl]methyl}-5-methyl-[1,2,5]oxadiazolo[3,4-b]pyridin-7-amine] it was 0.495 nM. Compound `Cc1nc2nonc2c(N)c1Cc1ccnc(Cl)c1` [Compound 4.55, 6-[(2-Chloropyridin-4-yl)methyl]-5-methyl-[1,2,5]oxadiazolo[3,4-b]pyridin-7-amine] showed an IC50 of 6.27 nM. The compound `Cc1nc2nonc2c(N)c1Cc1ccnc(OC(F)(F)F)c1` [Compound 4.56, 5-Methyl-6-{[2-(trifluoromethoxy)pyridin-4-yl]methyl}-[1,2,5]oxadiazolo[3,4-b]pyridin-7-amine] returned an IC50 of 0.519 nM. The value for `Cc1nc2nonc2c(N)c1Cc1ccc(C(F)(F)F)c(C#N)c1` [Compound 4.57, 5-({7-Amino-5-methyl-[1,2,5]oxadiazolo[3,4-b]pyridin-6-yl}methyl)-2-(trifluoromethyl)benzonitrile] was 0.121 nM. In the case of `Cc1nc2nonc2c(N)c1Cc1ccc(OC(F)(F)F)nc1` [Compound 4.58, 5-Methyl-6-{[6-(trifluoromethoxy)pyridin-3-yl]methyl}-[1,2,5]oxadiazolo[3,4-b]pyridin-7-amine] it was 0.752 nM; in that of `Cc1nc2nonc2c(N)c1Cc1ccc(C#N)c(C#N)c1` [Compound 4.59, 4-({7-Amino-5-methyl-[1,2,5]oxadiazolo[3,4-b]pyridin-6-yl}methyl)benzene-1,2-dicarbonitrile], 2.51 nM; in that of `Cc1nc2nonc2c(N)c1Cc1cnc(C(F)(F)F)c(C#N)c1` [Compound 4.60, 5-({7-Amino-5-methyl-[1,2,5]oxadiazolo[3,4-b]pyridin-6-yl}methyl)-2-(trifluoromethyl)pyridine-3-carbonitrile], 6.74 nM. The compound `Cc1nc2nonc2c(N)c1Cc1ccc(Br)c(C#N)c1` [Compound 4.61, 5-({7-Amino-5-methyl-[1,2,5]oxadiazolo[3,4-b]pyridin-6-yl}methyl)-2-bromobenzonitrile] yielded an IC50 of 0.542 nM.

In the case of `Cc1nc2nonc2c(N)c1Cc1cccc(OCF)c1` [Compound 8.1, 6-{[3-(Fluoromethoxy)phenyl]methyl}-5-methyl-[1,2,5]oxadiazolo[3,4-b]pyridin-7-amine], half-maximal inhibition (IC50) required 1.09 nM. The compound `Nc1c(Cc2ccc(C(F)(F)F)cc2)c(C(F)(F)F)nc2nonc12` [Compound 9.1, 5-(Trifluoromethyl)-6-{[4-(trifluoromethyl)phenyl]methyl}-[1,2,5]oxadiazolo[3,4-b]pyridin-7-amine] yielded an IC50 of 9.47 nM. In the case of `Cc1nc2nonc2c(N)c1Cc1ccc(O)cc1` [Compound 10.1, 4-(7-Amino-5-methyl-[1,2,5]oxadiazolo[3,4-b]pyridin-6-ylmethyl)-phenol] it was 0.594 nM; in that of `Nc1c(Cc2ccc(OC(F)(F)F)cc2)c(CF)nc2nonc12` [Compound 11.1, 5-(Fluoromethyl)-6-{[4-(trifluoromethoxy)phenyl]methyl}-[1,2,5]oxadiazolo[3,4-b]pyridin-7-amine], 0.068 nM. For the compound `Cc1nc2nonc2c(N)c1Cc1cccc(-c2ccn[nH]2)c1` [Compound 12.1, 5-Methyl-6-{[3-(1H-pyrazol-5-yl)phenyl]methyl}-[1,2,5]oxadiazolo[3,4-b]pyridin-7-amine], the IC50 is 0.079 nM. This IC50 and that of the compound before are within 1.5-fold of each other. In the case of `Cc1nc2nonc2c(N)c1Cc1ccc(OC(F)(F)F)c(-c2cc[nH]n2)c1` [Compound 12.2, 5-Methyl-6-[3-(1H-pyrazol-3-yl)-4-trifluoromethoxy-benzyl]-[1,2,5]oxadiazolo[3,4-b]pyridin-7-ylamine] it was 0.043 nM. In the case of `Cc1nc2nonc2c(N)c1Cc1ccc(-c2ccsc2C#N)nc1` [Compound 12.3, 3-[5-(7-Amino-5-methyl-[1,2,5]oxadiazolo[3,4-b]pyridin-6-ylmethyl)-pyridin-2-yl]-thiophene-2-carbonitrile] it was 0.509 nM.

One may read the IC50 as the concentration needed to halve the response being measured. A low value points to higher potency.
